Publication PMC6426982, “Anti-alcohol abuse drug disulfiram inhibits human PHGDH via disruption of its active tetrameric form through a specific cysteine oxidation” (Scientific Reports, 2019)
Numbering of substitutions follows the chain as printed. Like-named read-outs stand apart in the source and are kept apart here.

Key:
[1] = biological target: T1, human PHGDH (wild type) (Homo sapiens, UniProt O43175); experiment: PHGDH isolated enzyme inhibition assay (NADH fluorescence), wild type; assay type: biochemical
T1 construct: peptides including 12 out of the 13 Cys residues of the full length PHGDH could be identified and tracked; made in house; host or cells: Escherichia coli BL21
T1 sequence (O43175 1-533): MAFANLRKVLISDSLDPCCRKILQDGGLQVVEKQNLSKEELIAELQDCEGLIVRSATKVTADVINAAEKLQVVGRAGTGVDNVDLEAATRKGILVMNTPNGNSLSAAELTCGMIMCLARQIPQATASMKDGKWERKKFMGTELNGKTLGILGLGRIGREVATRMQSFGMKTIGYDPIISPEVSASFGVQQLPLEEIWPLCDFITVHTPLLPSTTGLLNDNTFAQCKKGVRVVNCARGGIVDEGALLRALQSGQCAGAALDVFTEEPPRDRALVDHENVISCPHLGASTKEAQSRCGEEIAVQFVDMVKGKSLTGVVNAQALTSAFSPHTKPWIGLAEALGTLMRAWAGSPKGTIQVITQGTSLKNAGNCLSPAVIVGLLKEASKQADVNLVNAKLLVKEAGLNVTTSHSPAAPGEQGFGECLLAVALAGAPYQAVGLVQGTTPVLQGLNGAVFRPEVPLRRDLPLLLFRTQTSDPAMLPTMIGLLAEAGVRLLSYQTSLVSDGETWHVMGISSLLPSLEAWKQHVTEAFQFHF
Procedure: Enzymatic assay was adapted from a previously described procedure. […] Assays were performed in PHGDH assay buffer (50 mM Tris, pH 8.5, and 1 mM EDTA). […] The final concentration of DMSO in the assay mixture was set to 5%.
pET28a human PHGDH and pET28a human C116S PHGDH were transformed into BL21 Escherichia coli. A single colony was grown to an OD600 0.6 in 1 L of Luria broth. Protein expression was induced with 1 mM isopropyl thiogalactopyranoside (IPTG). […] Pellets were resuspended in 60 mL of lysis buffer (50 mM Tris, pH 8.5, 10 mM MgCl2, 300 mM NaCl, 10% glycerol, 5 mM imidazole) and sonicated, and cell debris were pelleted by centrifugation (20,000 × g, 30 min). The supernatant was collected and purified using Akta purifier on HisTrap^TM FF column (GE Healthcare). […] Fraction protein content was measured via a Bradford assay. […] Protein purity was assessed via SDS/PAGE and Coomassie staining.

[2] = biological target: T2, human PHGDH C116S mutant (Homo sapiens, UniProt O43175, C116S); experiment: PHGDH enzyme inhibition assay, C116S mutant; assay type: biochemical
T2 construct: peptides including 12 out of the 13 Cys residues of the full length PHGDH could be identified and tracked; made in house; host or cells: Escherichia coli BL21
T2 sequence (O43175 1-533 C116S): T1 sequence (O43175 1-533) with C116S
Procedure: (§1) Enzymatic assay was adapted from a previously described procedure. NADH fluorescence emission (Ex 340 nm/Em 460 nm) was followed over time. Assays were performed in PHGDH assay buffer (50 mM Tris, pH 8.5, and 1 mM EDTA). Substrates and enzyme concentrations were as follows: 3-PG, 240 μM; NAD^+, 120 μM; glutamate, 30 mM; PHGDH, 12 ng/μL; PSAT1, 20 ng/μL. The final concentration of DMSO in the assay mixture was set to 5%.
pET28a human PHGDH and pET28a human C116S PHGDH were transformed into BL21 Escherichia coli. A single colony was grown to an OD600 0.6 in 1 L of Luria broth. Protein expression was induced with 1 mM isopropyl thiogalactopyranoside (IPTG). The culture was chilled on ice for 30 min, cultured for 18 h at room temperature and pelleted (6,000 g, 20 min). Pellets were resuspended in 60 mL of lysis buffer (50 mM Tris, pH 8.5, 10 mM MgCl2, 300 mM NaCl, 10% glycerol, 5 mM imidazole) and sonicated, and cell debris were pelleted by centrifugation (20,000 × g, 30 min). The supernatant was collected and purified using Akta purifier on HisTrap^TM FF column (GE Healthcare). […] Fraction protein content was measured via a Bradford assay. […] Protein purity was assessed via SDS/PAGE and Coomassie staining.

[3] = biological target: T3, PHGDH (Homo sapiens, UniProt O43175); experiment: Incubation assay (time-dependent PHGDH inhibition); assay type: biochemical; details: DSF 50 µM, 45 min incubation, 37 °C, Fig. 1A; read-out: PHGDH inhibition after incubation
T3 construct: peptides including 12 out of the 13 Cys residues of the full length PHGDH could be identified and tracked; made in house; host or cells: Escherichia coli BL21
T3 sequence (O43175 1-533): T1 sequence (O43175 1-533)
Procedure: (§2) Figure 1 Characterization of PHGDH inhibition by DSF. Residual activity percentage of PHGDH (A) upon incubation with DSF (50 µM) for the indicated times and (B) after the rapid dilution assay experiment with DSF (50 µM). All experiments values were performed in triplicates at each compound dilution and error bars show the standard deviation. Data were collected at 37 °C with a PHGDH concentration of 12 ng/µL in 50 mM Tris and 1 mM EDTA at pH 8.5.
as §1

[4] = biological target: T3, PHGDH; experiment: Rapid dilution assay; assay type: biochemical; details: DSF 50 µM (Fig. 1B)
Procedure: as §2
Dilution experiment was conducted following a reported procedure. DSF (5 μM) or DMSO control was incubated with PHGDH for 45 min at 37 °C. Undiluted DSF (5 μM) was included as a positive control for inhibition.

[5] = test system: UM-UC-3-PHGDH+ cells; experiment: Cell proliferation inhibition (Presto Blue), PHGDH-expressing cells; assay type: cell-based, human
Procedure: (§3) UM-UC-3 (PHGDH+ and PHGDH-) bladder cancer cells were purchased from the ATCC and cultured in DMEM medium supplemented with 10% heat-inactivated Fetal Bovine Serum (FBS) and 1% penicillin/streptomycin. Cells were seeded at 2500 cells/well in 96-well plates in serine depleted media (MEM). DSF or vehicle (DSMO) was added and cells were grown for 48 hours. Viability was assessed using Presto Blue reagent (Life Technologies) according to manufacturer’s instructions.

[6] = test system: UM-UC-3-PHGDH- cells; experiment: Cell proliferation inhibition (Presto Blue), cells not expressing PHGDH; assay type: cell-based; details: Homo sapiens, UMUC3, serine depleted media, 48 hours
Procedure: as §3

[7] = biological target: T3, PHGDH; experiment: Cross-linking experiment with BS3 (oligomeric state); details: DSF 1-500 µM, 30 min, BS3 cross-linker
Procedure: PHGDH (3 μg) was incubated with DSF (1 µM, 5 µM, 10 µM, 50 μM, 100 μM, 250 µM, 500 μM) or vehicle control (DMSO) in 25 mM HEPES, pH 7.3, and 1 mM NAD^+ in 18 μL total volume for 30 min on ice. BS3 (S5799; Sigma) cross-linker dissolved in PBS was added to a final concentration of 5 mM and incubated for 30 min under shaking at room temperature. The reaction was then quenched for 15 min by adding 1 M Tris, pH 7.5, to a final concentration of 28 mM. Cross-linked proteins were mixed with sample buffer, boiled for 5 min, and run on SDS/PAGE. Gels were stained with Gelcode blue stain reagent (24592; Thermo) overnight and destained according to the manufacturer’s instructions.

[8] = biological target: T4, PHGDH cysteine residues (Homo sapiens, UniProt O43175); experiment: nanoUHPLC/MS of tryptic PHGDH peptides after DSF treatment (cysteine modification)
T4 construct: peptides including 12 out of the 13 Cys residues of the full length PHGDH could be identified and tracked; made in house; host or cells: Escherichia coli BL21
T4 sequence (O43175 1-533): T1 sequence (O43175 1-533)
Procedure: To unambiguously confirm this hypothesis and possibly identify the cysteine residues involved in this interaction, mass spectrometry experiments were undertaken. Briefly, PHGDH was incubated for 30 min with various concentrations of disulfiram (0.1x IC50, 1x IC50 and 10x IC50). At the end of the incubation, chloroacetamide was added and incubated 15′ in large excess in order to block the remaining free cysteines residues for the following analysis. The protein was separated from the medium (removal of the remaining chloroacetamide and DSF by liquid/liquid extraction with CHCl3/H2O) followed by trypsinization and analysis of the peptides by nanoUHPLC/MS.
Mass spectrometry experiments were carried out on an Orbitrap Lumos, following a previously reported procedure, with some modifications. A local protein database containing the human PHGDH sequence (accession Uniprot O43175) was used to process the obtained MS/MS data. Mass error was set to 15 ppm for precursor ions and 0.6 Da for fragment ions. Oxidation on Met; disulfiram, (+147.025 Da) and carbamidomethyl (+57.021 Da) were considered as variable modifications on Cys.

[9] = biological target: T1, human PHGDH (wild type); parameters: method as in PMID 28085281; details: drug screening campaign in the authors' lab; cited from earlier work
[10] = cited from earlier work

With `CCN(CC)C(=S)[S][Cu][S]C(=S)N(CC)CC` [CuET, bis(diethyldithiocarbamate)–copper] the IC50 ([1]; wild type PHGDH 12 ng/µL, 37 °C, pH 8.5, Fig. 2, read-out: PHGDH inhibition (IC50)) was about 10000 nM and the “fold weaker IC50 compared to DSF” value ([1]; wtPHGDH) was “about 16 fold”.

Work on `CCN(CC)C(=S)SSC(=S)N(CC)CC` [DSF, bis(diethylthiocarbamoyl) disulfide] yielded an IC50 ([1]; Wild Type PHGDH, Table 2, read-out: PHGDH inhibition (IC50)) of 590 nM, an IC50 ([1]; purified PHGDH, triplicates, Table 1, read-out: PHGDH inhibition (IC50)) of 590 nM and an IC50 ([1]; with Triton X 0.01%, Fig. S1B, read-out: IC50 on PHGDH WT) of 490 nM. The IC50 ([1]; without Triton X, Fig. S1A, read-out: IC50 on PHGDH WT) was 530 nM, the “decrease in inhibitory potency on C116S mutant versus wild type enzyme” value [2] was 20 fold and the IC50 ([2]; C116S mutant, Table 2) was 10200 nM. The inhibition at 50 µM [3] was 100%, the “PHGDH activity after rapid dilution of the enzyme/inhibitor complex” value [4] was “not restored” and the IC50 ([5]; Homo sapiens, UMUC3, 48 h, UM-UC-3 +PHGDH, serine depleted media, 48 hours) was 775 nM. For the same molecule, the “difference in proliferation IC50 between PHGDH- and PHGDH+ cells” value ([5]; UM-UC-3-PHGDH- versus UM-UC-3-PHGDH+) was ~ 5 fold, the IC50 [6] was 3640 nM and the “oligomeric state of PHGDH after DSF treatment” value [7] was “concentration-dependent shift from the tetrameric to the dimeric, and to a lesser extent to the monomeric, form”. For the same molecule, the “Percentage of modified peptides, C111” value ([8]; DSF 0.05 µM, peptide 91-119) was 4.87%, the “Percentage of modified peptides, C116” value ([8]; DSF 0.05 µM, peptide 91-119) was 9.75% and the “Percentage of modified peptides, C111” value ([8]; DSF 0.05 µM, peptide 92-119) was 1.92%. The “Percentage of modified peptides, C116” value ([8]; DSF 0.05 µM, peptide 92-119) was 7.69%, the “Percentage of modified peptides, C116” value ([8]; DSF 0.5 µM, peptide 91-119 (Ox M)) was 7.14% and the “Percentage of modified peptides, C111” value ([8]; DSF 0.5 µM, peptide 92-119) was 6.67%. The “Percentage of modified peptides, C116” value ([8]; DSF 0.5 µM, peptide 92-119) was 46.67%, the “Percentage of modified peptides, C111” value ([8]; DSF 5 µM, peptide 91-119) was 4.16% and the “Percentage of modified peptides, C116” value ([8]; DSF 5 µM, peptide 91-119) was 50.00%. For the same molecule, the “Percentage of modified peptides, C111” value ([8]; DSF 5 µM, peptide 92-119) was 10.34%, the “Percentage of modified peptides, C116” value ([8]; DSF 5 µM, peptide 92-119) was 39.65% and the “Percentage of modified peptides, C281” value ([8]; DSF 5 µM, peptide 271-289) was 1.26%. For the same molecule, the IC50 [9] was 590 nM, the Cmax ([10]; reported, read-out: maximum plasma concentration (Cmax)) was 1280 nM and the elimination half-life ([10]; single-dose administration of 250 mg of DSF) was 7.3 h.
